According to PMC3468400, “Pharmacokinetic profiles of artesunate following multiple intravenous doses of 2, 4, and 8 mg/kg in healthy volunteers: Phase 1b study” (Malaria Journal, 2012):
Read-outs that look alike come from different tables or passages of the source.

Experiments:
[1] = Pharmacokinetics of dihydroartemisinin (DHA), active metabolite, in plasma after multiple intravenous AS doses, non-compartmental analysis; format: in vivo, human; settings: for Total AUCD1-D3: DHA, days 1-3; for AUC: Mean AUC of DHA, range over doses, AS 2-8 mg/kg iv
Procedure: The study was a double blind, ascending multiple doses, alternating group, safety, tolerance, and PK study. […] When the injection was completed, the study nurse recorded tolerance of injection to include both inspection of site and subjects’ responses. Subjects were provided a light lunch at approximately 4 hours after dosing. Normal activities, excluding strenuous exercise, were permitted four hours after dosing. […] During the multiple-dose period, samples were collected immediately before morning dose on days 2 and 3 for additional trough values. All the samples were stored at −80 °C until shipment and were then shipped to a bio-analytical GLP laboratory, Midwest Research Institute (MRI), in Kansas City, MO, USA. The human use protocol numbers for the Phase 1 trial are: USUHS #G183RW; WRIAR #1128; and HSRRB #A-13276.
The analytes were extracted from human plasma with ethyl acetate. […] The reconstituted extracts were analysed on a Micromass Quattro II Mass Spectrometer in the positive ion electrospray ionization (+ESI) mode. […] This method employed a Varian Pursuit C18 column (150 x 2.0 mm, 5-μm particle size) and a gradient elution with the following mobile phases: A: 10 mM ammonium acetate in water with 1% formic acid and B: 10 mM ammonium acetate in acetonitrile with 1% formic acid, for the chromatographic separation.
Calibration standards and QC samples were analysed to evaluate the performance of the assay.
The maximum concentration in plasma for each subject was read directly from the experimental values. […] The values of the following PK parameters were derived by a non-compartmental method: the half-life (t½); mean residence time (MRT); the AUC from time zero to the last sampling time (AUCt); the AUC from time zero extrapolated to infinity (AUCinf); relative total systemic clearance (CL/F_obs); and volume of distribution during steady state (Vss/F_obs). A drug accumulation index was estimated from the AUC value on day 3 divided by the AUC value on day 1 (first multiple dose administration).

[2] = tested on: asexual blood stage parasites; settings: cited from earlier work
[3] = tested on: severe falciparum malaria; settings: SEAQUAMAT, severe malaria patients, intravenous treatment; cited from earlier work
[4] = human, plasma, intravenous, all days and dose cohorts

With `C[C@H]1[C@@H](O)O[C@@H]2O[C@@]3(C)CC[C@H]4[C@H](C)CC[C@@H]1[C@@]24OO3` [DHA, dihydroartemisinin] the “Mean peak concentrations of DHA over the three days, range” value ([1]; 4 mg/kg cohort) was 2923 to 3018 ng/mL, the “Mean peak concentrations of DHA over the three days, range” value ([1]; 8 mg/kg cohort) was 5762 to 6056 ng/mL and the “Total AUCD1-D3” value ([1]; AS 2 mg/kg iv daily for 3 days, mean (CV%), n = 6) was 6520 (18). For the same compound, the “Total AUCD1-D3” value ([1]; AS 4 mg/kg iv daily for 3 days, mean (CV%), n = 6) was 12092 (20), the “Total AUCD1-D3” value ([1]; AS 8 mg/kg iv daily for 3 days, mean (CV%), n = 6) was 27635 (34) and the “time DHA detected in plasma” value ([1]; after each short-term infusion of AS, all volunteers) was “until six hours”. The AUC(0-inf) ([1]; human, plasma, intravenous, 2 mg/kg, Mean AUCinf of DHA over three days, range, 2 mg/kg cohort) was 2020 to 2380 ng·h/mL, the AUC(0-inf) ([1]; human, plasma, intravenous, 4 mg/kg, Mean AUCinf of DHA over three days, range, 4 mg/kg cohort) was 3740 to 4390 ng·h/mL and the AUC(0-inf) ([1]; human, plasma, intravenous, 8 mg/kg, Mean AUCinf of DHA over three days, range, 8 mg/kg cohort) was 8730 to 9700 ng·h/mL. It also gave a CL/F [1, 4] of 14.6 to 19.4 mL/min/kg, a Tmax [1, 4] of 0.16 to 0.29 h and a Cmax ([1]; human, plasma, iv, 2 mg/kg) of 1740 ng/mL. For the same compound, the MRT ([1]; human, plasma, iv, 2 mg/kg, Day 1, DHA after AS 2 mg/kg iv daily for 3 days, 2 min infusion, mean (CV%), n = 6, NCA) was 1.41 h, the AUC(0-inf) ([1]; human, plasma, iv, 2 mg/kg, Day 1, DHA after AS 2 mg/kg iv daily for 3 days, 2 min infusion, mean (CV%), n = 6, NCA, read-out: AUCinf) was 2120 ng·h/mL and the half-life ([1]; human, plasma, iv, 2 mg/kg, Day 1, DHA after AS 2 mg/kg iv daily for 3 days, 2 min infusion, mean (CV%), n = 6, NCA, read-out: t1/2 elimination (converted)) was 1.19 h. For the same compound, the MRT ([1]; human, plasma, iv, 2 mg/kg, Day 3, DHA after AS 2 mg/kg iv daily for 3 days, 2 min infusion, mean (CV%), n = 6, NCA) was 1.39 h, the Tmax ([1]; human, plasma, iv, 2 mg/kg, read-out: Tmax) was 0.29 h and the Cmax ([1]; human, plasma, iv, 4 mg/kg) was 3020 ng/mL. The MRT ([1]; human, plasma, iv, 4 mg/kg, Day 1, DHA after AS 4 mg/kg iv daily for 3 days, 2 min infusion, mean (CV%), n = 6, NCA) was 1.91 h, the AUC(0-inf) ([1]; human, plasma, iv, 4 mg/kg, Day 1, DHA after AS 4 mg/kg iv daily for 3 days, 2 min infusion, mean (CV%), n = 6, NCA, read-out: AUCinf) was 4390 ng·h/mL and the half-life ([1]; human, plasma, iv, 4 mg/kg, Day 1, DHA after AS 4 mg/kg iv daily for 3 days, 2 min infusion, mean (CV%), n = 6, NCA, read-out: t1/2 elimination (converted)) was 1.74 h. It also gave an MRT ([1]; human, plasma, iv, 4 mg/kg, Day 3, DHA after AS 4 mg/kg iv daily for 3 days, 2 min infusion, mean (CV%), n = 6, NCA) of 1.57 h, an AUC(0-inf) ([1]; human, plasma, iv, 4 mg/kg, Day 3, DHA after AS 4 mg/kg iv daily for 3 days, 2 min infusion, mean (CV%), n = 6, NCA, read-out: AUCinf) of 3960 ng·h/mL and a half-life ([1]; human, plasma, iv, 4 mg/kg, Day 3, DHA after AS 4 mg/kg iv daily for 3 days, 2 min infusion, mean (CV%), n = 6, NCA, read-out: t1/2 elimination (converted)) of 1.24 h. The Tmax ([1]; human, plasma, iv, 4 mg/kg, read-out: Tmax) was 0.25 h, the Cmax ([1]; human, plasma, iv, 8 mg/kg) was 6060 ng/mL and the MRT ([1]; human, plasma, iv, 8 mg/kg, Day 1, DHA after AS 8 mg/kg iv daily for 3 days, 2 min infusion, mean (CV%), n = 6, NCA) was 1.81 h. The AUC(0-inf) ([1]; human, plasma, iv, 8 mg/kg, Day 1, DHA after AS 8 mg/kg iv daily for 3 days, 2 min infusion, mean (CV%), n = 6, NCA, read-out: AUCinf) was 9700 ng·h/mL, the half-life ([1]; human, plasma, iv, 8 mg/kg, Day 1, DHA after AS 8 mg/kg iv daily for 3 days, 2 min infusion, mean (CV%), n = 6, NCA, read-out: t1/2 elimination (converted)) was 1.42 h and the MRT ([1]; human, plasma, iv, 8 mg/kg, Day 3, DHA after AS 8 mg/kg iv daily for 3 days, 2 min infusion, mean (CV%), n = 6, NCA) was 1.78 h. For the same compound, the AUC(0-inf) ([1]; human, plasma, iv, 8 mg/kg, Day 3, DHA after AS 8 mg/kg iv daily for 3 days, 2 min infusion, mean (CV%), n = 6, NCA, read-out: AUCinf) was 9200 ng·h/mL, the half-life ([1]; human, plasma, iv, 8 mg/kg, Day 3, DHA after AS 8 mg/kg iv daily for 3 days, 2 min infusion, mean (CV%), n = 6, NCA, read-out: t1/2 elimination (converted)) was 1.34 h and the half-life ([1]; human, plasma, iv, 8 mg/kg, mean elimination half-life of DHA, range, range of means over three days and AS 2, 4, 8 mg/kg iv doses) was 1.23 to 1.63 h. The Tmax ([1]; human, plasma, iv, 8 mg/kg, read-out: Tmax) was 0.25 h, the AUC ([1]; human, plasma, iv, day 1) was 2120 to 9700 ng·h/mL and the AUC ([1]; human, plasma, iv, day 3) was 2380 to 9200 ng·h/mL. The “mean elimination half-life of DHA, range” value ([1]; range of means over three days and AS 2, 4, 8 mg/kg iv doses) was 1.19 to 1.91 h and the “time to complete inhibition of parasite growth” value [2] was “within two to four hours”.
In the case of `C=C[C@H]1C[N@@]2CC[C@H]1C[C@H]2[C@H](O)c1ccnc2ccc(OC)cc12` [quinine], the mortality rate [3] is listed as 22%.
